Assay results as given in ChEMBL document CHEMBL1125844, “Novel non-nucleoside inhibitors of HIV-1 reverse transcriptase. 1. Tricyclic pyridobenzo- and dipyridodiazepinones” (J Med Chem, 1991).

Columns and labels:
[1] = target: Human immunodeficiency virus type 1 reverse transcriptase (Human immunodeficiency virus 1, UniProt Q72547); assay: In vitro inhibitory activity against human immunodeficiency virus type 1 (HIV-1) reverse transcriptase (RT)
[2] = target: Human immunodeficiency virus type 1 reverse transcriptase (Human immunodeficiency virus 1) (UniProt Q72547); assay: In vitro inhibitory activity against human immunodeficiency virus type 1 (HIV-1) reverse transcriptase (RT) at a concentration of 10 ug/mL.

Row | Structure (SMILES) | IC50 [1] [nM] | inhibition [2] [%]
1 | CCN1c2cccc(C)c2N(Cc2ccccc2)C(=O)c2cccnc21 | > 1000 | 40
2 | CCN1c2ccc(CO)cc2N(C)C(=O)c2cccnc21 | > 1000 | 78
3 | CN1C(=O)c2cccnc2Nc2ccccc21 | > 1000 | 43
4 | CCN1c2cc(C(F)(F)F)cc(Cl)c2N(C)C(=O)c2cccnc21 | 290 | 96
5 | CCN1c2cccc(C)c2NC(=O)c2cccnc21 | 38 | 100
6 | CCN1c2ccccc2N(C)C(=O)c2cc(C(F)(F)C(F)(F)F)cnc21 | > 1000 | 5
7 | O=C1Nc2cccnc2N(C2CCC2)c2ncccc21 | 430 | 99
8 | Cc1cccc2c1NC(=O)c1cccnc1N2 | > 1000 | 77
9 | CN1C(=O)c2cccnc2N(CC(=O)OC(C)(C)C)c2ccccc21 | > 1000 | 87
10 | CCN1c2cc(Cl)ccc2N(C)C(=O)c2cccnc21 | 170 | 100
11 | CN1C(=O)c2ccccc2N(C)c2ccccc21 | > 1000 | 52
12 | CN1C(=O)c2cccnc2N(Cc2ccccc2)c2ccccc21 | 9000 | 93
13 | CCN1c2cc([N+](=O)[O-])ccc2N(C)C(=O)c2cc(Br)cnc21 | 890 | 95
14 | CCN1c2ncccc2C(=O)Nc2c(Cl)ccnc21 | 95 | 100
15 | Cc1ccnc2c1N(C)C(=O)c1cccnc1N2C1CC1 | > 1000 | 96
16 | CCN1c2ccc(C(=O)OC)cc2N(C)C(=O)c2cccnc21 | 1100 | 94
17 | C=CCN1c2ncccc2C(=O)N(C)c2cccnc21 | 850 | 99
18 | C=CCN1C(=O)c2cccnc2Nc2ccccc21 | 1400 | 96
19 | CCN1c2ncccc2NC(=O)c2cc(C)cnc21 | > 1000 | 89
20 | CCCN1c2ccccc2N(C)C(=O)c2cccnc21 | 230 | 99
21 | CCN1c2ncccc2C(=O)N(C)c2c(C)ccnc21 | 1900 | 98
22 | CC(C)N1c2ncccc2NC(=O)c2cccnc21 | 590 | 99
23 | CCN1C(=O)c2cccc(C)c2N(CC)c2ncccc21 | 650 | 99
24 | CCN1c2ccccc2N(C)C(=O)c2cc(Cl)cnc21 | 7600 | 91
25 | CN1C(=O)c2ccccc2N(C)c2ncccc21 | > 1000 | 74

Row | Structure (SMILES) | IC50 [1] [nM] | inhibition [2] [%]
26 | CCN1c2ccc(CN)cc2N(C)C(=O)c2cccnc21 | > 1000 | 84
27 | CCN1c2cc(N)ccc2N(C)C(=O)c2cccnc21 | 4500 | 89
28 | CN1c2ccccc2NC(=O)c2cccnc21 | > 1000 | 75
29 | CCN1c2nc(C)ccc2C(=O)N(C)c2cccnc21 | > 1000 | 65
30 | CCN1c2ncccc2C(=O)Nc2c(O)ccnc21 | > 1000 | 94
31 | Cc1cc(C)c2c(n1)Nc1ccccc1C(=O)N2 | > 1000 | 51
32 | Cc1ccnc2c1NC(=O)c1c(O)ccnc1N2C1CC1 | > 1000 | 96
33 | CCN1c2ccc(CNC(=O)C(C)(C)C)cc2N(C)C(=O)c2cccnc21 | > 1000 | 15
34 | CCN1c2ccccc2N(C)C(=O)c2cccnc21 | 350 | 100
35 | O=C1Nc2ccccc2Nc2ncccc21 | > 1000 | 22
36 | CC(C)(C)OC(=O)CN1C(=O)c2cccnc2Nc2ccccc21 | > 1000 | 39
37 | CCN1c2ncccc2C(=O)N(C)c2cccnc21 | 125 | 100
38 | CSCN1c2ncccc2C(=O)N(C)c2cccnc21 | 850 | 99
39 | CCN1c2cc(NC(C)=O)ccc2N(C)C(=O)c2cccnc21 | > 1000 | 49
40 | C=CCN1C(=O)c2cccnc2N(C(=O)CC)c2ccccc21 | > 1000 | 72
41 | CCN1C(=O)c2cccnc2Nc2ccccc21 | > 1000 | 87
42 | O=C1Nc2cccnc2N(c2ccccc2)c2ncccc21 | > 1000 | 71
43 | COCCN1C(=O)c2cccnc2Nc2ccccc21 | > 1000 | 36
44 | CCN1c2ccccc2C(=O)N(C)c2ccccc21 | > 1000 | 80
45 | CCOC(=O)CN1c2ccccc2N(C)C(=O)c2cccnc21 | 16000 | 56
46 | O=C1Nc2c(CO)ccnc2N(C2CC2)c2ncccc21 | 3000 | 94
47 | C=CCN1C(=O)c2cccnc2Nc2ccc(Cl)cc21 | > 1000 | 79
48 | CCN1c2ccc(C)c(C)c2N(C)C(=O)c2cccnc21 | 36 | 99
49 | CCN1c2cccc(C)c2N(C)C(=O)c2cccnc21 | 240 | 100
50 | CN1C(=O)c2cccnc2N(CCF)c2ncccc21 | 2900 | 96

Row | Structure (SMILES) | IC50 [1] [nM] | inhibition [2] [%]
51 | CCN1c2ccc(O)cc2N(C)C(=O)c2cccnc21 | > 1000 | 47
52 | CN1C(=O)c2cccnc2N(S(C)(=O)=O)c2ncccc21 | > 1000 | 77
53 | Cc1ccc2c(c1)N(C)C(=O)c1c(C)cc(C)nc1N2C | > 1000 | 49
54 | CCN1c2cc(Cl)c(Cl)cc2N(C)C(=O)c2cccnc21 | 62 | 100
55 | CCCCN1c2ccccc2N(C)C(=O)c2cccnc21 | 1000 | 81
56 | CCN1c2cc(C(=O)c3ccccc3)ccc2N(C)C(=O)c2cccnc21 | > 1000 | 73
57 | O=C1Nc2cccnc2N(C2CCCC2)c2ncccc21 | > 1000 | 94
58 | CC(C)N1c2ccccc2N(C)C(=O)c2cccnc21 | 200 | 98
59 | CCN1c2cc(N=[N+]=[N-])ccc2N(C)C(=O)c2cccnc21 | 140 | 100
60 | CCN1c2ncccc2C(=O)Nc2c(OC)ccnc21 | > 1000 | 96
61 | CCN1c2ncccc2NC(=O)c2c(C)ccnc21 | > 1000 | 80
62 | CN1C(=O)c2cccnc2N(CC(=O)O)c2ccccc21 | > 1000 | 60
63 | CCOC(=O)N1c2ccccc2N(C)C(=O)c2cccnc21 | > 1000 | 13
64 | CCN1c2ncccc2C(=O)N(C)c2ccc(C)nc21 | 170 | 100
65 | CCN1c2ccccc2N(C)C(=O)c2ccc(F)nc21 | 2900 | 84
66 | CC(=O)N1c2ccccc2N(C)C(=O)c2cccnc21 | > 1000 | 72
67 | CCN1c2ncccc2C(=O)N(C(C)=O)c2cccnc21 | 360 | 99
68 | CCN1c2ncccc2C(=O)N(C)c2cc([N+](=O)[O-])cnc21 | > 1000 | 64
69 | CCN1c2ccc(Cl)cc2N(C)C(=O)c2cccnc21 | 170 | 99
70 | O=C1Nc2cccnc2Nc2ccccc21 | > 1000 | 23
71 | CCCN1c2ncccc2C(=O)N(C)c2cccnc21 | 450 | 100
72 | C#CCN1c2ncccc2C(=O)N(C)c2cccnc21 | > 1000 | 94
73 | CC[C@H](C)N1c2ncccc2NC(=O)c2cccnc21 | > 1000 | 88
74 | CCN1c2ncccc2NC(=O)c2cccnc21 | 440 | 99
75 | C=CCN1C(=O)c2cccnc2N(C(C)=O)c2ccccc21 | > 1000 | 83

Row | Structure (SMILES) | IC50 [1] [nM] | inhibition [2] [%]
76 | CCN1c2ccc(C(N)=O)cc2N(C)C(=O)c2cccnc21 | 27000 | 66
77 | CCN1c2ccc(C)cc2N(C)C(=O)c2cccnc21 | 190 | 100
78 | CCN1c2ccccc2N(CF)C(=O)c2cccnc21 | > 1000 | 85
79 | CCN1c2nc(C)c(C)cc2NC(=O)c2cccnc21 | 410 | 100
80 | CCN1c2cc(C(F)(F)F)ccc2N(C)C(=O)c2cccnc21 | 230 | 97
81 | CCN1c2ccccc2C(=O)N(C)c2cccnc21 | 500 | 99
82 | O=C1Nc2cccnc2N(C2CC2)c2ncccc21 | 450 | 99
83 | CCN1C(=O)c2cccnc2N(CC)c2cccc(C)c21 | 8000 | 90
84 | CCN1C(=O)c2ccccc2N(CC)c2ncccc21 | 690 | 96
85 | CCN1c2ncccc2C(=O)N(C)c2cc(Cl)c(N)nc21 | 850 | 98
86 | CCN1c2ncccc2C(=O)N(C)c2cc(C)cnc21 | 760 | 100
87 | CCN1c2cc(C(F)(F)F)cc(Br)c2N(C)C(=O)c2cccnc21 | > 1000 | 71
88 | CCN(CC)C(=O)c1ccc2c(c1)N(C)C(=O)c1cccnc1N2CC | > 1000 | 11
89 | CCN1c2ncccc2C(=O)Nc2c(C)ccnc21 | 35 | 100
90 | Cc1ccnc2c1NC(=O)c1cccnc1N2C1CC1 | – | 100
91 | CN1C(=O)c2cccnc2N(CCF)c2ccccc21 | 1000 | 97
92 | CN1C(=O)c2cccnc2N(C)c2ccccc21 | > 1000 | 85
93 | Cc1ccc2c(n1)Nc1ccccc1C(=O)N2 | > 1000 | 46
94 | CCN1C(=O)c2cccnc2N(CC)c2ccccc21 | 380 | 99
95 | Cc1cc2c(cc1C)N(CCN(C)C)c1ncccc1C(=O)N2C | > 1000 | 0
96 | CN1C(=O)c2cccnc2N(C2CCCCC2)c2ncccc21 | > 1000 | 73
97 | CN1C(=O)c2cccnc2N(C(C)(C)C)c2ncccc21 | 11000 | 87
98 | CCN1c2ccc(OC)cc2N(C)C(=O)c2cccnc21 | 2100 | 95
